Data set [1] concerns mouse model of peritonitis. As to conditions: 10-100 ng dose; cited from earlier work.
For data set [2], the system named is human polymorphonuclear leukocyte (PMNL). As to conditions: read-out: EC50, reduction of human PMNL transendothelial migration; cited from earlier work.
For another data set, the system named is NOD mice. Nature of the data set: T1D incidence in NOD mice. The class given is in vivo, mouse. The following applies: 30-week monitoring period, vehicle only 75%. How it is done: To determine the impact of their signaling on T1D incidence, we treated NOD mice with either GP or EC alone starting at 4 weeks of age or in combination, where GP was started at 4 weeks of age and EC was introduced at 10 weeks of age. T1D incidence was recorded when blood glucose levels ≥[…] were measured in two consecutive weeks.

The subject of another data set is Th1 helper cells. Nature of the data set: IFN-γ production by Th1 helper cells in the NOD. The class given is cell-based, mouse. From the text:
Type 1 diabetes (T1D) is a consequence of autoimmune destruction of pancreatic islet β-cells, but the involved processes remain unclear. […] The iPLA2β hydrolyzes membrane phospholipids at the sn-2 substituent to release a fatty acid (i.e., arachidonic acid), that is metabolized to generate proinflammatory (pi) lipids. We find that global reduction of iPLA2β reduces T1D incidence. Given the importance of T-lymphocytes in T1D development, we investigated the contribution of iPLA2β-derived lipids (iDLs) from T-lymphocytes with adoptive transfer and ex vitro functional approaches. The CD4^+/8^+ T-cells were purified from pre-diabetic female NOD and NOD.iPLA2β^+/− (HET) spleens. Different combinations of the cells (NOD4+8, NOD4+HET8, and NOD8+HET4) were then administered (i.p. 7.5×10^6: 2.5×10^6) to 4-week-old female immunodeficient NOD.scid mice. We find that scid recipients of a combination that included HET4 or HET8 had higher plasma insulin, decreased insulitis, and increased β-cell mass, compared to recipients of NOD4+NOD8.

For a further data set, the target named is T1, EP3 (Homo sapiens, UniProt P43115).
T1 sequence (P43115 1-390): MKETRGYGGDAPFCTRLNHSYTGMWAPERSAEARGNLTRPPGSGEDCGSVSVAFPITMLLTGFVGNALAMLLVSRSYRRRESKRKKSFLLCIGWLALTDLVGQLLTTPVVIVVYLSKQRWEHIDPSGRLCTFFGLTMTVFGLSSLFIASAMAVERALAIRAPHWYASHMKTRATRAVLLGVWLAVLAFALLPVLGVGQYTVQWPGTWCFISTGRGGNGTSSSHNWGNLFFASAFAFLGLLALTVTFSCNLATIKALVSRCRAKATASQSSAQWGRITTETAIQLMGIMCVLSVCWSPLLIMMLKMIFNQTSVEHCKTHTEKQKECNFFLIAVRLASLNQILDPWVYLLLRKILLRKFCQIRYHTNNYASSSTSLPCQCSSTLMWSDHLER
As to conditions: cited from earlier work.

For data set [3], the target named is T2, EP4 (Homo sapiens, UniProt P35408). The following applies: CHO cells expressing EP4; 10 μM; cited from earlier work.
The next data set has as its target EP2 (Homo sapiens, UniProt P43116). The following applies: cited from earlier work.
Data set [4] has as its target T2, EP4. The following applies: HEK293 cells expressing EP4; cited from earlier work.
The subject of the next data set is RAW 264.7 cells. The following applies: 10 μM; cited from earlier work.
The target of a further data set is T3, EP1 (Homo sapiens, UniProt P34995).
T3 sequence (P34995 1-402): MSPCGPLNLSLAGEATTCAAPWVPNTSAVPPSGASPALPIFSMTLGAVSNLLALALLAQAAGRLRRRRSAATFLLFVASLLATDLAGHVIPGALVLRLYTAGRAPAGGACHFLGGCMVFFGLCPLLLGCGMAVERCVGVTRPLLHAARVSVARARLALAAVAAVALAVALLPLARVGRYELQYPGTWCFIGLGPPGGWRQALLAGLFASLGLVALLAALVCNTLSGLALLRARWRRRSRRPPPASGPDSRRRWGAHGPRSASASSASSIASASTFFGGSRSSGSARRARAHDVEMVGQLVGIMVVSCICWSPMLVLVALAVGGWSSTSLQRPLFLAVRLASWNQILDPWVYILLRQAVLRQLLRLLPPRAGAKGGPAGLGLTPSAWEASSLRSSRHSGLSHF
As to conditions: cited from earlier work.

The test system of a further data set is young rats. As to conditions: 10 mg/kg/day; cited from earlier work.
In the next data set the test system is HCA-7 colon cancer cells. As to conditions: 10 μM; cited from earlier work.
Data set [5] concerns LPS-activated human macrophages. The following applies: 100 nM; cited from earlier work.
In a further data set the test system is human NK cells. The following applies: 0.01-10 μM, pretreatment 1 h, then 50 ng/ml IL-2, 0.33 μM PGE2, 18 hours; cited from earlier work.
The subject of the next data set is NK cells. The following applies: cited from earlier work.
In data set [6] the target is T2, EP4. As to conditions: full antagonist; read-out: IC50 in the functional assay; cited from earlier work.

T2 sequence (P35408 whole entry): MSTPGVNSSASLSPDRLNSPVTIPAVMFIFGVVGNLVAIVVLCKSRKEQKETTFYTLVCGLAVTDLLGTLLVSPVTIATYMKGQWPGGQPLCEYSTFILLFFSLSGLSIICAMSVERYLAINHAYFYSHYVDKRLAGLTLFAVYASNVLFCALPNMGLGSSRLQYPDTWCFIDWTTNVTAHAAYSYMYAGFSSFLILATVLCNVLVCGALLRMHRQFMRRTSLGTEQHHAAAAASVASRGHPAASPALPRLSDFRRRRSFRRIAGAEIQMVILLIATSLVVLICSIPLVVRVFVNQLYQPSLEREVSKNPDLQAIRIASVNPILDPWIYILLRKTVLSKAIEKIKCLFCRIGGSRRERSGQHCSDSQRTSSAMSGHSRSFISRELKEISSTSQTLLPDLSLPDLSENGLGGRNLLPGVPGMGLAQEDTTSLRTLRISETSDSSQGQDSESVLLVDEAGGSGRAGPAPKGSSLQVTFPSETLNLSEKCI
Sequence of EP2 (P43116 whole entry): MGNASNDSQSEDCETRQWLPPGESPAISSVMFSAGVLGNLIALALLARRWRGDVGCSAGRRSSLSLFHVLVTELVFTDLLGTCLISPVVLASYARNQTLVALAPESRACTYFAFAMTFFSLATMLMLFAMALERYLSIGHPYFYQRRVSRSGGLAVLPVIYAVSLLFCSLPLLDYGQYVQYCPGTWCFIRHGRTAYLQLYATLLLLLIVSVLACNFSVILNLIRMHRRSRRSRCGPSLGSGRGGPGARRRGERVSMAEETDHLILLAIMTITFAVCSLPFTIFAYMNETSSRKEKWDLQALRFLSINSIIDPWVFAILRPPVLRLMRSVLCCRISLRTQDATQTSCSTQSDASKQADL

As to `CC/C=C\C[C@@H](O)/C=C/C=C\C=C\C=C\[C@@H](O)[C@@H](O)C/C=C\CCC(=O)O` [17 (R)-epimer of RvD1], in data set [1], the “maximal inhibition of leukocyte infiltration” value is approximately 35%. For the same compound, the EC50 in [2] is approximately 0.03 µM.
Take `CC[C@H](C)C(=O)N1CCC(NC(=O)Nc2ccc(OC(F)(F)F)c(F)c2)CC1` [EC5026]: in the data set with NOD mice, the T1D incidence result was “without effect”. Moreover, in the data set with Th1 helper cells, the “IFN-γ production by Th1 helper cells” value is recorded as “significantly reduced”.
As to `C/C=C/c1nnn(Cc2ccc(C(F)(F)F)cc2)c1C(=O)N[C@@H](C)c1ccc(C(=O)O)cc1` [EP4 receptor antagonist 1], the concentration for half-maximal inhibition (IC50) on EP3, on EP2 and on EP1 was more than 10 µM in each case. Further, at EP4 [3], the “ERK phosphorylation induced by PGE2” value is “reverses”. For the same compound, the “PGE2-induced β-arrestin recruitment” value on EP4 [4] is on record as “inhibits”. Moreover, the “GM-CSF-induced expression of II1b, II4ra, II6, Arg1, Cox2, and II10” value with RAW 264.7 cells is given as “decreases”.
For `CCCCc1nn(-c2ccccc2C(F)(F)F)c(=O)n1Cc1ccc(-c2ccccc2S(=O)(=O)NC(=O)c2sccc2C)cc1` [L-161,982], the PGE2-stimulated bone formation entry in the data set on young rats was “suppresses”. The PGE2-induced cell proliferation entry with HCA-7 colon cancer cells is listed as “blocks”. Further, the “anti-inflammatory action of PGE2” value in data set [5] is “reverses”.
Regarding `O=C(O)c1ccc(C2(NC(=O)c3cccc4ccn(Cc5ccc(C(F)(F)F)cc5)c34)CC2)cc1` [MF-766], in the data set on human NK cells, the “PGE2-suppressed IFN-γ secretion” value is “reverses”. For the same compound, the NK cell viability entry in the data set with NK cells is reported as “not affected”. Further, the IC50 on EP4 [6] is 0.0014 µM.
Turning to `CC/C=C\C[C@H](O)/C=C/C=C\C=C\C=C\[C@@H](O)[C@@H](O)C/C=C\CCC(=O)O` [RvD1], the “maximal inhibition of leukocyte infiltration” value in data set [1] is recorded as approximately 35%. For the same compound, in data set [2], the EC50 was approximately 0.03 µM.
As for `CCc1nc2c(C)nc(C)cc2n1-c1ccc(CCNC(=O)NS(=O)(=O)c2ccc(C)cc2)cc1` [grapiprant], the T1D incidence in the data set with NOD mice is 50%. Also, the “IFN-γ production by Th1 helper cells” value in the data set on Th1 helper cells was “significantly reduced”.

The term IC50 denotes the concentration that gives 50% inhibition.

These data come from patent US20240342196A1, “TARGETING SELECT LIPID SIGNALING TO COUNTER TYPE 1 DIABETES (T1D)” (The UAB Research Foundation, priority 2023, published 2024).
